Like-named read-outs stand apart in the source and are kept apart here.
What was measured:
SUM149 cells = assay: Matrigel invasion (cell motility) assay; type: cell-based, human; conditions: FIG. 14A
Text: (§1) FIG. 14. Determination of cell invasiveness in the presence and absence of thiopurines and/or redox agents. […] Western blot analysis representing the total expression of RhoC in these cells also is shown. (B) Experimental procedures for the determination of the time-dependent motility of cells using the QCM Cell Invasion Assay kit in the presence and absence of 6-TG and DETA/NO are described elsewhere herein.
(§2) The top chamber of a Transwell filter (6.5 mm with 8 μm pores, Costar; Corning, N.Y.) was coated with a 10 μL aliquot of 10 mg/mL Matrigel, and the lower chamber of the Transwell was filled with either serum-free or serum-containing media. Sample cells were prepared to resuspend cells in a serum-free medium with 0.1% BSA at a concentration of 4×10^5 cells/mL. […] The Transwell filters were fixed with methanol, stained with haematoxylin and eosin, and cells in the serum-containing samples were counted. The number of cells that had invaded the serum-free, medium-containing lower chambers was used as a control background.

HME-C20S RhoC cells = assay: Matrigel invasion (cell motility) assay; type: cell-based, human; conditions: FIG. 14A
Text: as §1, §2

RhoA = biological target: T1, RhoA (Homo sapiens, UniProt P61586); assay: Competitive binding assay, [3H]GDP-loaded Rho protein titrated with 6-TGDP (FIG. 16A)
T1 construct: made in house; host or cells: E. coli
Protocol: FIG. 16. Kinetic properties of RhoC with 6-TGDP in the presence or absence of a redox agent. All kinetic analyses are described elsewhere herein. (A) ^appKD values of Rac1, RhoA, RhoC, and RhoC C20S for 6-TGDP were estimated to be 7.9, 11.6, 11.8, and 11.2 μM, respectively. ^trueKD values of Rac1, RhoA, and RhoC for 6-TGDP were then calculated to be 5.1, 10.8, 11.1, and 10.5 μM, respectively, by using a compensation equation, ^trueKD for 6-TGDP=^appKD for 6-TGDP/(1+[[^3H]GDP]/^trueKD for GDP) (Heo, J., and Hong, I. (2010) Biochemistry 49, 3965-3976), in conjunction with the values given. […] The GDP dissociation rates from RhoC C20S by NO, .NO2, and N2O3 were estimated to be 0.02×10^−3, 0.05×10^−3, and 0.04×10^−3 s^−1, respectively. […] (D) ^appKD values of RhoC for [^3H]GDP in the presence or absence of DTT were estimated to be 22.4 μM and […], respectively. ^appKD values of C20S RhoC for [^3H]GDP in the presence or absence of DTT were determined to be 24.8 μM and 25.2 μM, respectively. […]
(a) A competitive binding assay was performed to determine the binding affinity of Rho GTPase and 6-TGDP. […] Each membrane was washed three times with the assay buffer, and radioactivity was determined using a Beckman-Coulter scintillation counter. The radioactivity of the sample (Rho protein-bound [^3H]GDP) was converted into, and thus plotted, as the fraction of mol GDP per mol total Rho protein. […]

T1 sequence (P61586 whole entry, species assumed): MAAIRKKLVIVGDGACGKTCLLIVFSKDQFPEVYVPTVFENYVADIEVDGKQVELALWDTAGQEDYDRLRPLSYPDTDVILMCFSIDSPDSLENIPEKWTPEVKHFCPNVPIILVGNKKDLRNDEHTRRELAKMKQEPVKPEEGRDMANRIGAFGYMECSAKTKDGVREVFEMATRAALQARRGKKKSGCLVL

Kd (RhoA; [3H]GDP-loaded Rho protein 1 μM titrated with 6-TGDP, read-out: appKD for 6-TGDP) [µM] | Kd (RhoA; calculated by compensation equation, read-out: trueKD for 6-TGDP) [µM] | Compound | cell motility (SUM149 cells; 6-TG 1 μM alone, three or more consecutive days) | invasive cell motility (SUM149 cells; 6-TG 1 μM with DETA/NO (or GSNO) 10 μM, three days) | effect on motility compared with SUM149 and HME-RhoC cells (HME-C20S RhoC cells; 6-TG alone, three days) | effect on C20S RhoC activity and invasive cell motility (HME-C20S RhoC cells; 6-TG with a NO donor, compared with either alone)
– | – | Nc1nc2nc[nH]c2c(=S)[nH]1 [6-TG, 6-thioguanine] | gradual but significant diminution of cell motility | complete termination of the invasive cell motility | insignificant | lack of a significant effect
11.6 | 10.8 | Nc1nc2c(ncn2[C@@H]2O[C@H](COP(=O)(O)OP(=O)(O)O)[C@@H](O)[C@H]2O)c(=S)[nH]1 [6-TGDP, 6-thioguanosine diphosphate] | – | – | – | –

Reference: patent US8729047B2, “Compositions for inhibiting redox-sensitive GTPases” (Board of Regents, The University of Texas System, priority 2010, dated 2014)
